Measured values published in US20110263487A1, “Plant Production and Delivery System for Recombinant Proteins as Protein-Flour or Protein-Oil Compositions” (University of Georgia Research Foundation, Inc., priority 2007, published 2011).

System: Fall Army Worm, Spodoptera frupperda
Assay: Larvae feeding on transgenic Arabidopsis plants, mortality
Assay type: in vivo
Conditions: relative to control plants
Procedure: The mortality of moth larvae species was assayed examining the feeding of the three genotypes of transgenic plants relative to each other and relative to wild-type plant controls. An initial result indicates extremely high expression levels of the B.t. and B.t.B expressed from the ACTIN 2 A2pt cassette can be achieved. […] Cry1Ac (plant line Cry1#31, Table 2). The mortality of Fall Army Worm, Spodoptera frupperda, which is 100-fold less sensitive to Cry1Ac, was assayed feeding on these plants.

Substance: B.t. Cry1Ac: Bacillus thuringiensis toxin Cry1Ac expressed in transgenic Arabidopsis from A2pt::Cry1Ac (SEQ ID NO: 1)
- killing of the Fall Army Worm feeding on transgenic plants: weak killing activity
